A short description of series [1]: Liver microsome metabolic stability. Format: in vitro ADME. Here is the method:
(§1) The ADME properties of QL-1200186 in vitro were measured by the following assays: Caco-2 permeability assay, CYP inhibition assay, protein binding assay, and liver microsome assay. Each assay was performed as previously described.
In general terms: Liver microsomes are a subcellular fraction often used to study metabolism.

Series [2] deals with IL-12/IL-18-driven IFNγ production. The series can be described thus: IL-12/IL-18-induced IFNγ release in mice. Format: in vivo. As for the experimental part:
Healthy female, specific pathogen-free C57BL/6 mice (6–8 weeks) were intraperitoneally (i.p.) injected with IL-12 and IL-18 to drive IFNγ production. Mice were numbered, weighed and divided randomly into seven groups of five according to body weight using Excel™ (Office™; Microsoft, Redmond, WA, USA). One hour after drug administration, IL-12 (0.01 μg/mouse) was i.p. injected. One hour later, recombinant IL-18 (0.1 μg/mouse) was injected. Whole blood was collected 3 h later and centrifuged (300 g, 10 min, 4 °C), and serum was collected. IFNγ expression in serum was determined by a CBA Flex kit (BD Biosciences).

Series [3] deals with T1, TYK2 (Homo sapiens, UniProt P29597).
T1 construct: host or cells: Jurkat cells
T1 sequence (P29597 whole entry): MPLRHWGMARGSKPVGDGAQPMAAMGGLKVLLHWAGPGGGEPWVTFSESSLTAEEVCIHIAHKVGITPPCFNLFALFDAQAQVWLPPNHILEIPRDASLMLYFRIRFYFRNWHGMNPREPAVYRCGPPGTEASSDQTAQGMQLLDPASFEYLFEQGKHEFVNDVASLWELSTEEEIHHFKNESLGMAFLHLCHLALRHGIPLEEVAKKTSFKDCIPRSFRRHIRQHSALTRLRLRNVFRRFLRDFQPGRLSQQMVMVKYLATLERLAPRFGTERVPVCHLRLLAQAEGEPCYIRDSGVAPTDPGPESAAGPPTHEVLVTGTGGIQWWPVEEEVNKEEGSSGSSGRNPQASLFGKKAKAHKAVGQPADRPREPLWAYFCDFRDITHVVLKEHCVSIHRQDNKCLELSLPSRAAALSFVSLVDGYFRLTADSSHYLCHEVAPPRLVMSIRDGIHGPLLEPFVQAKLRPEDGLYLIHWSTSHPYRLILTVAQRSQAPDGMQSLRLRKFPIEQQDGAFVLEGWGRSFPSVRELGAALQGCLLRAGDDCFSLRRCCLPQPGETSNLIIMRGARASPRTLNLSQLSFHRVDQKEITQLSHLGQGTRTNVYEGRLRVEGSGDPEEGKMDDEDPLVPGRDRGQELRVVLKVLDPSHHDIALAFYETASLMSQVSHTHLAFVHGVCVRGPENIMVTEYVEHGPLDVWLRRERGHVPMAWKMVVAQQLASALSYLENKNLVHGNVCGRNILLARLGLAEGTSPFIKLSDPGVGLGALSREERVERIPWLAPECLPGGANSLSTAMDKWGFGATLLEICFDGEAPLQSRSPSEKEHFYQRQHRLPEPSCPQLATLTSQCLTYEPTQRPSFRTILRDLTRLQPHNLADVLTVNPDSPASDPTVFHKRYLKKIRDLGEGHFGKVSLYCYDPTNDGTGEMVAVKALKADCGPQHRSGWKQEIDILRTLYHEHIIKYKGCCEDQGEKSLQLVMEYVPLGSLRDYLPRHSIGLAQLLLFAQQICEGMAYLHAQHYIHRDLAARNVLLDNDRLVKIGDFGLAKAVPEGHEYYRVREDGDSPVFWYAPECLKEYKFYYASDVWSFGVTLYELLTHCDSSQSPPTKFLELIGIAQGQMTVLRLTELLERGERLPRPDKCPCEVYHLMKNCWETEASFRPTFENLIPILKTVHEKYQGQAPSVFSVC
The series is described as follows: IFNα-stimulated TYK2 phosphorylation in Jurkat cells, western blot. The conditions noted are these: IFNα 1000 U/mL. Format: cell-based. From the text:
Then, the phosphorylation of Tyr-1054 and Tyr-1055 in Jurkat cells (Cobioer Biosciences: CBP61444) was detected by western blotting to determine the inhibitory effect of QL-1200186 on TYK2 receptor-mediated activation.
Background: A western blot detects proteins with antibodies after separation by electrophoresis.

In series [4] the test system is TYK2/JAK1. The series is described as follows: IFNα-induced pSTAT1 in CD3+ T cells of human PBMCs. Format: cell-based. As for the experimental part: The reaction was terminated by collecting cells for surface staining. Cells were stained with anti-CD3 FITC (300406; Biolegend, San Diego, CA, USA), anti-CD19 APC (555415; BD Biosciences) or aqua fluorescent reactive dye BV421 (L34966A; Invitrogen, Carlsbad, CA, USA) antibodies for 20 min. After washing, fixation buffer (557870; BD Biosciences) was added and incubated for 10 min. Cells were washed and permeabilized on ice using Perm III Buffer (558050; BD Biosciences). Cells were stained with PE anti-PSTAT1 antibody (562069; BD Biosciences) for 30 min and analyzed by flow cytometry.

Series [5] addresses CYP450 1A2 (Homo sapiens, UniProt P05177). Format: in vitro ADME. Here is the method: as §1
For series [6], the target named is CYP450 2C19 (Homo sapiens, UniProt P33261). The series is described as follows: CYP inhibition assay. Format: in vitro ADME. As for the experimental part: as §1
Chain of CYP450 2C19 (P33261 whole entry): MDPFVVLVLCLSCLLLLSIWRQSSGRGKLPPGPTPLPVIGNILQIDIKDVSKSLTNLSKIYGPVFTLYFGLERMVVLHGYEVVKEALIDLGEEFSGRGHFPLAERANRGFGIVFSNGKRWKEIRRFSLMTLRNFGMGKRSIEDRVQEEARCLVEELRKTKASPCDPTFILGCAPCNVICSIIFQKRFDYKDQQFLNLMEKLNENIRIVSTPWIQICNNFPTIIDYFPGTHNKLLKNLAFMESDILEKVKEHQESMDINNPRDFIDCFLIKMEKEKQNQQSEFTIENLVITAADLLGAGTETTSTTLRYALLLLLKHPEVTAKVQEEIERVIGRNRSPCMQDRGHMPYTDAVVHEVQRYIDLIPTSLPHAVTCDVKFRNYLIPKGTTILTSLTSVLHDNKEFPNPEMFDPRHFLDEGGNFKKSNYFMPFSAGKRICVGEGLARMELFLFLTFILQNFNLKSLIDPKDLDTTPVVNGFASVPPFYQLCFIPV
Series [7] concerns the target CYP450 2C9 (Homo sapiens, UniProt P11712). The series can be described thus: CYP inhibition assay. Format: in vitro ADME. Here is the method: as §1
Series [8] concerns the target CYP450 2D6 (Homo sapiens, UniProt P10635). The series can be described thus: CYP inhibition assay. Format: in vitro ADME. Here is the method: as §1
Series [9] has as its system CYP450 3A4/5. The series can be described thus: CYP inhibition assay. Format: in vitro ADME. As for the experimental part: as §1
In series [10] the test system is JAK2/JAK2. The series can be described thus: TPO-stimulated pSTAT3/STAT5 in platelets of human whole blood. Format: cell-based. As for the experimental part:
Stimulation was terminated by adding Lyse/Fix buffer. Staining with BUV786 mouse anti-human CD61 antibody (744384; BD Biosciences) was carried out, followed by washing, permeabilization and staining with PE mouse anti-human STAT3 antibody (651004; BD Biosciences) and APC mouse anti-human STAT5 antibody (562076; BD Biosciences), as described above. The expression of p-STAT3 and STAT5 was quantified by the MFI after the number of CD61-positive platelets was optimized.

The test system of series [11] is imiquimod-induced psoriasis-like skin inflammation. The series is described as follows: Imiquimod-induced mouse model of psoriasis (PASI). Format: in vivo, mice. As for the experimental part: Healthy male BALB/c mice (18–20 g) were divided randomly into three groups of eight according to body weight using Excel™ (Office™; Microsoft). After 1 week of adaptive feeding, mice received a daily topical dose of 62.5 mg of 5% imiquimod cream ([…]; Aldara®; 3 M Pharmaceuticals, Maplewood, MN, USA) on the shaved back and left ear for 7 consecutive days. Control mice were treated similarly with vehicle cream (Vaseline lanette creme; Fagron, Amsterdam, the Netherlands). Mice in the treatment group were given QL-1200186 (5 mg/kg or 1 mg/kg) orally twice a day (p.o., b.i.d.).
The Psoriasis Area and Severity Index (PASI) consists of erythema, scaling and skin thickness measurements. Mice were evaluated from day 1 when imiquimod was given for 7 consecutive days. The thickness of the mouse skin was measured using a micrometer. The PK parameters were also measured.

The values below come from article PMC10578023 (Cell Communication and Signaling : CCS, 2023).

The term IC50 denotes the midpoint of a concentration-inhibition curve.

Chain of CYP450 2C9 (P11712 whole entry): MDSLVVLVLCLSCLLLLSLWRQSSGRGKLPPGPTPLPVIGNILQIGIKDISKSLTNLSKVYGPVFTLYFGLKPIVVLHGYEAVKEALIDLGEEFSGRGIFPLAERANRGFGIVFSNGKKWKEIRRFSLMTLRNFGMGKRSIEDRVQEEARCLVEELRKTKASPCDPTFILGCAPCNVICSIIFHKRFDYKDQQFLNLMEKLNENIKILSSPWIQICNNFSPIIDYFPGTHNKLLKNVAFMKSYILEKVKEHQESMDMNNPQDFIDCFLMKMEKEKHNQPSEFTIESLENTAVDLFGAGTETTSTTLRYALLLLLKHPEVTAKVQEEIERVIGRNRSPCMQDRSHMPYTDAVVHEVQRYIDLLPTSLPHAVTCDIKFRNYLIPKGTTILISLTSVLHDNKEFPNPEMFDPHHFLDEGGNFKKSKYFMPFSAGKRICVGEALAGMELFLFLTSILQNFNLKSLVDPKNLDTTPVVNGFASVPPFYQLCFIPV
Chain of CYP450 1A2 (P05177 whole entry): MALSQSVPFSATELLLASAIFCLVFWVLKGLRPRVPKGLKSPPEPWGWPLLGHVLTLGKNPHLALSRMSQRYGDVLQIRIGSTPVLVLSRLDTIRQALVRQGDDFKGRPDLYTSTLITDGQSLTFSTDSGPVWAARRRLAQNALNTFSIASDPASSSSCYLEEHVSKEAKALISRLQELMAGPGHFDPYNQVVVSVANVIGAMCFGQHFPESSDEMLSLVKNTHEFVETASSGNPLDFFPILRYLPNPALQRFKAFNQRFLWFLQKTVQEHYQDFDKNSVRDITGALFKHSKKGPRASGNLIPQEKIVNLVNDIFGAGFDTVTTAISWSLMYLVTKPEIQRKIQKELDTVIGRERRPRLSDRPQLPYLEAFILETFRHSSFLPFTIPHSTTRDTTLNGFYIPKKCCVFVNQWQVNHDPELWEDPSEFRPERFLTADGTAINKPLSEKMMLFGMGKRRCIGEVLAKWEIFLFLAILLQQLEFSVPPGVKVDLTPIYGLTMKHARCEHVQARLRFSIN
Chain of CYP450 2D6 (P10635 whole entry): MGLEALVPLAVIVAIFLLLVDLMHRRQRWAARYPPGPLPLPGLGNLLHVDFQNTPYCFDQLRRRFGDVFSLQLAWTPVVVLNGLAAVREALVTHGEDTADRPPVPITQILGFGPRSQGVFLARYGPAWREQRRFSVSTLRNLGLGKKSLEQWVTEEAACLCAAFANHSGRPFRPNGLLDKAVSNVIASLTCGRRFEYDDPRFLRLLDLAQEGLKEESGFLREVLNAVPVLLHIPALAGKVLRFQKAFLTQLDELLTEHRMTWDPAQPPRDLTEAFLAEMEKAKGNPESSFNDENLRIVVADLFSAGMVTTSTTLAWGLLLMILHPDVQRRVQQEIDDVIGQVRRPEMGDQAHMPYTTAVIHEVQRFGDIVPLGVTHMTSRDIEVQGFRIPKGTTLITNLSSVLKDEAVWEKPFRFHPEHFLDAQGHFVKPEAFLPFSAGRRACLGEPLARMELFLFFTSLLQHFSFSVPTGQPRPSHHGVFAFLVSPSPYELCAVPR

Turning to `CNC(=O)c1cnc2cc1Nc1cc(cc(-c3ccn(C)n3)c1OC)CCOCc1cccc(n1)N2` [QL-1200186, 5^6-methoxy-N-methyl-5^5-(1-methyl-1H-pyrazol-3-yl)-8-oxa-2,4-diaza-1(2,6),3(2,4)-dipyridina-5(1,3)-benzenacyclononaphane-3^5-carboxamide], the “Metabolic Stability L.M. T1/2” value is 84.9 min in series [1] (Dog); greater than 186.4 min in series [1] (Human); 71.7 min in series [1] (Monkey); 76.5 min in series [1] (Mouse); 109.4 min in [1] (Rat). In addition, the “inhibition of serum IFNγ production” value in [2] (oral 10 mg/kg) is recorded as 97.8%; in series [2] (oral, 0.1 mg/kg) it was 77.1%; in [2] (oral, 1 mg/kg) it was 86.9%. Besides, in [3], the “IFNα-stimulated phosphorylation of TYK2 in Jurkat cells” value is reported as “blocked IFNα-stimulated phosphorylation of TYK2 in Jurkat cells in a concentration-dependent manner”. The IC50 in series [4] is 1.61 nM; in [5], greater than 50 µM; in series [6], 2900 nM; in series [7] it was 6.4 µM; in series [8], greater than 50 µM; in series [9] it was greater than 50 µM. Moreover, in [10] (@10μM), the “TPO-pSTAT3/STAT5 in human whole blood (JAK2/JAK2) inhibition” value is listed as “no inhibition @10μM”. Further, the “activity in thrombopoietin (TPO)-induced JAK2/JAK2 signaling” value in series [10] (human whole blood) is listed as “no activity”. Further, in series [11] (day 7), the “psoriasis severity according to the thickness score” value is “significantly alleviated psoriasis severity”. Besides, in series [11] (vs imiquimod group, p.o., b.i.d., n = 8), the “psoriasis-like inflammatory symptoms (erythema, scaling, thickening; PASI)” value was “significantly improved psoriasis-like inflammatory symptoms”.
